# Reference: ChEMBL document CHEMBL1201861, “Genomics of Drug Sensitity in Cancer screening data, Wellcome Trust Sanger Institute”
# Test system: TE-441-T
# Test: cells
# Type: functional, cell-based, Homo sapiens
# Settings: Homo sapiens, TE-441-T
# Description: SANGER: Inhibition of human TE-441-T cell growth in a cell viability assay.
row,Compound,IC50
1,COc1cccc2c1C(=O)c1c(O)c3c(c(O)c1C2=O)C[C@@](O)(C(=O)CO)C[C@@H]3O[C@H]1C[C@H](N)[C@H](O)[C@H](C)O1 [DOXORUBICIN],89.8 nM

# Test system: NCI-H2087;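 further: growth inhibition determined with a cell viability readout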
# Test: cells
# Type: functional, cell-based, Homo sapiens
# Settings: Homo sapiens, NCI-H2087
# Description: SANGER: Inhibition of human NCI-H2087 cell growth in a cell viability assay.
row,Compound,IC50
1,COc1cccc2c1C(=O)c1c(O)c3c(c(O)c1C2=O)C[C@@](O)(C(=O)CO)C[C@@H]3O[C@H]1C[C@H](N)[C@H](O)[C@H](C)O1 [DOXORUBICIN],49.4 nM

# Test system: MDA-MB-453
# Test: cells
# Type: functional, cell-based, Homo sapiens
# Settings: Homo sapiens, MDA-MB-453
# Description: SANGER: Inhibition of human MDA-MB-453 cell growth in a cell viability assay.
row,Compound,IC50
1,COc1cccc2c1C(=O)c1c(O)c3c(c(O)c1C2=O)C[C@@](O)(C(=O)CO)C[C@@H]3O[C@H]1C[C@H](N)[C@H](O)[C@H](C)O1 [DOXORUBICIN],> 1020 nM

# Test system: LOX IMVI
# Test: cells
# Type: functional, cell-based, Homo sapiens
# Settings: Homo sapiens, LOX IMVI
# Description: SANGER: Inhibition of human LOXIMVI cell growth in a cell viability assay.
row,Compound,IC50
1,COc1cccc2c1C(=O)c1c(O)c3c(c(O)c1C2=O)C[C@@](O)(C(=O)CO)C[C@@H]3O[C@H]1C[C@H](N)[C@H](O)[C@H](C)O1 [DOXORUBICIN],389 nM

# Test system: PC-14;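 further: cell viability assay measuring inhibition of PC-14 cell growth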
# Test: cells
# Type: functional, cell-based, Homo sapiens
# Settings: Homo sapiens, PC-14
# Description: SANGER: Inhibition of human PC-14 cell growth in a cell viability assay.
row,Compound,IC50
1,COc1cccc2c1C(=O)c1c(O)c3c(c(O)c1C2=O)C[C@@](O)(C(=O)CO)C[C@@H]3O[C@H]1C[C@H](N)[C@H](O)[C@H](C)O1 [DOXORUBICIN],236 nM

# Test system: SKG-IIIa;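 further: cell growth inhibition, read out with a cell viability assay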
# Test: cells
# Type: functional, cell-based, Homo sapiens
# Settings: Homo sapiens, SKG-IIIa
# Description: SANGER: Inhibition of human SKG-IIIa cell growth in a cell viability assay.
row,Compound,IC50
1,COc1cccc2c1C(=O)c1c(O)c3c(c(O)c1C2=O)C[C@@](O)(C(=O)CO)C[C@@H]3O[C@H]1C[C@H](N)[C@H](O)[C@H](C)O1 [DOXORUBICIN],311 nM

# Test system: NCI-H2347;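 further: growth inhibition of the cell line, read out with a cell viability assay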
# Test: cells
# Type: functional, cell-based, Homo sapiens
# Settings: Homo sapiens, NCI-H2347
# Description: SANGER: Inhibition of human NCI-H2347 cell growth in a cell viability assay.
row,Compound,IC50
1,COc1cccc2c1C(=O)c1c(O)c3c(c(O)c1C2=O)C[C@@](O)(C(=O)CO)C[C@@H]3O[C@H]1C[C@H](N)[C@H](O)[C@H](C)O1 [DOXORUBICIN],158 nM

# Test system: OCI-AML2;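 further: growth inhibition of OCI-AML2 cells, read out with a cell viability assay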
# Test: cells
# Type: functional, cell-based, Homo sapiens
# Settings: Homo sapiens, OCI-AML2
# Description: SANGER: Inhibition of human OCI-AML2 cell growth in a cell viability assay.
row,Compound,IC50
1,COc1cccc2c1C(=O)c1c(O)c3c(c(O)c1C2=O)C[C@@](O)(C(=O)CO)C[C@@H]3O[C@H]1C[C@H](N)[C@H](O)[C@H](C)O1 [DOXORUBICIN],45 nM

# Test system: A 172;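 further: growth inhibition of A172 cells, measured with a cell viability readout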
# Test: cells
# Type: functional, cell-based, Homo sapiens
# Settings: Homo sapiens, A 172
# Description: SANGER: Inhibition of human A172 cell growth in a cell viability assay.
row,Compound,IC50
1,COc1cccc2c1C(=O)c1c(O)c3c(c(O)c1C2=O)C[C@@](O)(C(=O)CO)C[C@@H]3O[C@H]1C[C@H](N)[C@H](O)[C@H](C)O1 [DOXORUBICIN],80.5 nM

# Test system: Huh-7;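 further: HuH-7 cell growth inhibition, read out with a cell viability assay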
# Test: cells
# Type: functional, cell-based, Homo sapiens
# Settings: Homo sapiens, Huh-7
# Description: SANGER: Inhibition of human HuH-7 cell growth in a cell viability assay.
row,Compound,IC50
1,COc1cccc2c1C(=O)c1c(O)c3c(c(O)c1C2=O)C[C@@](O)(C(=O)CO)C[C@@H]3O[C@H]1C[C@H](N)[C@H](O)[C@H](C)O1 [DOXORUBICIN],258 nM

# Test system: MC-CAR;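 further: growth inhibition of the human MC-CAR cell line, read out by a cell viability assay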
# Test: cells
# Type: functional, cell-based, Homo sapiens
# Settings: Homo sapiens, MC-CAR
# Description: SANGER: Inhibition of human MC-CAR cell growth in a cell viability assay.
row,Compound,IC50
1,COc1cccc2c1C(=O)c1c(O)c3c(c(O)c1C2=O)C[C@@](O)(C(=O)CO)C[C@@H]3O[C@H]1C[C@H](N)[C@H](O)[C@H](C)O1 [DOXORUBICIN],48.7 nM

# Test system: HOP-62
# Test: cells
# Type: functional, cell-based, Homo sapiens
# Settings: Homo sapiens, HOP-62
# Description: SANGER: Inhibition of human HOP-62 cell growth in a cell viability assay.
row,Compound,IC50
1,COc1cccc2c1C(=O)c1c(O)c3c(c(O)c1C2=O)C[C@@](O)(C(=O)CO)C[C@@H]3O[C@H]1C[C@H](N)[C@H](O)[C@H](C)O1 [DOXORUBICIN],35.9 nM

# Test system: G-401
# Test: cells
# Type: functional, cell-based, Homo sapiens
# Settings: Homo sapiens, G-401
# Description: SANGER: Inhibition of human G-401 cell growth in a cell viability assay.
row,Compound,IC50
1,COc1cccc2c1C(=O)c1c(O)c3c(c(O)c1C2=O)C[C@@](O)(C(=O)CO)C[C@@H]3O[C@H]1C[C@H](N)[C@H](O)[C@H](C)O1 [DOXORUBICIN],30.2 nM

# Test system: CTB-1
# Test: cells
# Type: functional, cell-based, Homo sapiens
# Settings: Homo sapiens, CTB-1
# Description: SANGER: Inhibition of human CTB-1 cell growth in a cell viability assay.
row,Compound,IC50
1,COc1cccc2c1C(=O)c1c(O)c3c(c(O)c1C2=O)C[C@@](O)(C(=O)CO)C[C@@H]3O[C@H]1C[C@H](N)[C@H](O)[C@H](C)O1 [DOXORUBICIN],64.2 nM

# Test system: HCC1395;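 further: growth inhibition of HCC1395 cells, read out by a cell viability assay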
# Test: cells
# Type: functional, cell-based, Homo sapiens
# Settings: Homo sapiens, HCC1395
# Description: SANGER: Inhibition of human HCC1395 cell growth in a cell viability assay.
row,Compound,IC50
1,COc1cccc2c1C(=O)c1c(O)c3c(c(O)c1C2=O)C[C@@](O)(C(=O)CO)C[C@@H]3O[C@H]1C[C@H](N)[C@H](O)[C@H](C)O1 [DOXORUBICIN],> 1020 nM

# Test system: CAPAN-1;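 further: growth suppression of CAPAN-1 cells, read out by a cell viability assay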
# Test: cells
# Type: functional, cell-based, Homo sapiens
# Settings: Homo sapiens, CAPAN-1
# Description: SANGER: Inhibition of human CAPAN-1 cell growth in a cell viability assay.
row,Compound,IC50
1,COc1cccc2c1C(=O)c1c(O)c3c(c(O)c1C2=O)C[C@@](O)(C(=O)CO)C[C@@H]3O[C@H]1C[C@H](N)[C@H](O)[C@H](C)O1 [DOXORUBICIN],51.8 nM

# Test system: UMUC3;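 further: growth inhibition of human UM-UC-3 cells, read out with a cell viability assay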
# Test: cells
# Type: functional, cell-based, Homo sapiens
# Settings: Homo sapiens, UMUC3
# Description: SANGER: Inhibition of human UM-UC-3 cell growth in a cell viability assay.
row,Compound,IC50
1,COc1cccc2c1C(=O)c1c(O)c3c(c(O)c1C2=O)C[C@@](O)(C(=O)CO)C[C@@H]3O[C@H]1C[C@H](N)[C@H](O)[C@H](C)O1 [DOXORUBICIN],86 nM

# Test system: T98G;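 further: growth inhibition of T98G cells, read out by a cell viability assay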
# Test: cells
# Type: functional, cell-based, Homo sapiens
# Settings: Homo sapiens, T98G
# Description: SANGER: Inhibition of human T98G cell growth in a cell viability assay.
row,Compound,IC50
1,COc1cccc2c1C(=O)c1c(O)c3c(c(O)c1C2=O)C[C@@](O)(C(=O)CO)C[C@@H]3O[C@H]1C[C@H](N)[C@H](O)[C@H](C)O1 [DOXORUBICIN],> 1020 nM

# Test system: NB13;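 further: cell viability readout measuring growth inhibition of human NB13 cells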
# Test: cells
# Type: functional, cell-based, Homo sapiens
# Settings: Homo sapiens, NB13
# Description: SANGER: Inhibition of human NB13 cell growth in a cell viability assay.
row,Compound,IC50
1,COc1cccc2c1C(=O)c1c(O)c3c(c(O)c1C2=O)C[C@@](O)(C(=O)CO)C[C@@H]3O[C@H]1C[C@H](N)[C@H](O)[C@H](C)O1 [DOXORUBICIN],135 nM

# Test system: SBC-1;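 further: cell viability assay measuring growth inhibition of the SBC-1 cell line, IC50 being the concentration that halves growth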
# Test: cells
# Type: functional, cell-based, Homo sapiens
# Settings: Homo sapiens, SBC-1
# Description: SANGER: Inhibition of human SBC-1 cell growth in a cell viability assay.
row,Compound,IC50
1,COc1cccc2c1C(=O)c1c(O)c3c(c(O)c1C2=O)C[C@@](O)(C(=O)CO)C[C@@H]3O[C@H]1C[C@H](N)[C@H](O)[C@H](C)O1 [DOXORUBICIN],156 nM

# Test system: CAL-33;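 further: growth inhibition of CAL-33 cells, read out with a cell viability assay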
# Test: cells
# Type: functional, cell-based, Homo sapiens
# Settings: Homo sapiens, CAL-33
# Description: SANGER: Inhibition of human CAL-33 cell growth in a cell viability assay.
row,Compound,IC50
1,COc1cccc2c1C(=O)c1c(O)c3c(c(O)c1C2=O)C[C@@](O)(C(=O)CO)C[C@@H]3O[C@H]1C[C@H](N)[C@H](O)[C@H](C)O1 [DOXORUBICIN],67.9 nM

# Test system: ST486
# Test: SANGER: Inhibition of human ST486 cell growth in a cell viability assay.
# Type: functional, cell-based
# Settings: Homo sapiens, ST486
row,Compound,IC50
1,COc1cccc2c1C(=O)c1c(O)c3c(c(O)c1C2=O)C[C@@](O)(C(=O)CO)C[C@@H]3O[C@H]1C[C@H](N)[C@H](O)[C@H](C)O1 [DOXORUBICIN],15.5 nM

# Test system: GI-ME-N;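 further: growth inhibition of human GI-ME-N cells, read out with a cell viability assay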
# Test: cells
# Type: functional, cell-based, Homo sapiens
# Settings: Homo sapiens, GI-ME-N
# Description: SANGER: Inhibition of human GI-ME-N cell growth in a cell viability assay.
row,Compound,IC50
1,COc1cccc2c1C(=O)c1c(O)c3c(c(O)c1C2=O)C[C@@](O)(C(=O)CO)C[C@@H]3O[C@H]1C[C@H](N)[C@H](O)[C@H](C)O1 [DOXORUBICIN],93.3 nM
